Consider one compound from ChEMBL document CHEMBL4251557 (Eur J Med Chem, 2017).

pIC50: −log10 of the molar value.

For the test, the target named is Neuraminidase (Influenza A virus (A/Puerto Rico/8/1934(H1N1)), UniProt P03468, H274Y). The arrangement: species or system Influenza A virus (A/California/04/2009(H1N1)).

A word on the pIC50: it is the negative decadic logarithm of the IC50, by convention in mol/L. The low end stands for a large IC50, the high end for a small IC50. `CCC(CC)O[C@@H]1C=C(C(=O)O)C[C@H](NC(C)=O)[C@H]1NC(C)=O` gave a negative-log IC50 (pIC50) of 5.86.
